Test results reported in ChEMBL document CHEMBL1201862, “PubChem BioAssay data set” (2004).
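Compound exposure: 48 hours, 5 concentrations, 96-well plates. GI50 is the concentration that inhibits growth by half.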 The source made the active and inactive calls. No stated cut-off is given here; in the data, active = GI50 up to about 1.1 µM and inactive = higher.

What was measured:
Assay in all cases: inhibition of tumour cell growth, NCI panel, 48 h
786-0 = system: 786-0
A498 = system: A498
A549 = system: A549
ACHN = system: ACHN
CAKI-1 = system: CAKI-1
CCRF-CEM = system: CCRF-CEM
COLO 205 = system: COLO 205
DMS-114 = system: DMS-114
DMS-273 = system: DMS-273
EKVX = system: EKVX
HCC 2998 = system: HCC 2998
HCT-116 = system: HCT-116
HCT-15 = system: HCT-15
HL-60 = system: HL-60
HOP-18 = system: HOP-18
HOP-62 = system: HOP-62
HOP-92 = system: HOP-92
HT-29 = system: HT-29
IGROV-1 = system: IGROV-1
K562 = system: K562
KM-20L2 = system: KM-20L2
KM12 = system: KM12
LOX IMVI = system: LOX IMVI
LXFL 529 = system: LXFL 529
M14 = system: M14
M19-MEL = system: M19-MEL
MOLT-4 = system: MOLT-4
Malme-3M = system: Malme-3M
NCI-H226 = system: NCI-H226
NCI-H23 = system: NCI-H23
NCI-H460 = system: NCI-H460
NCI-H522 = system: NCI-H522
OVCAR-3 = system: OVCAR-3
OVCAR-4 = system: OVCAR-4
OVCAR-5 = system: OVCAR-5
OVCAR-8 = system: OVCAR-8
RPMI-8226 = system: RPMI-8226
RXF 393 = system: RXF 393
RXF 631 = system: RXF 631
SF-268 = system: SF-268
SF-295 = system: SF-295
SF-539 = system: SF-539
SK-MEL-28 = system: SK-MEL-28
SK-MEL-2 = system: SK-MEL-2
SK-MEL-5 = system: SK-MEL-5
SK-OV-3 = system: SK-OV-3
SN12C = system: SN12C
SNB-19 = system: SNB-19
SNB-75 = system: SNB-75
SNB-78 = system: SNB-78
SR = system: SR
SW-620 = system: SW-620
TK-10 = system: TK-10
U-251 = system: U-251
UACC-257 = system: UACC-257
UACC-62 = system: UACC-62
UO-31 = system: UO-31
DLD-1 = system: DLD-1
XF498 = system: XF498

Question: `CC1=C(/C(C)=N/NS(=O)(=O)c2ccc(C)cc2)Sc2ccccc2N1` was tested. Which GI50 (786-0) did it give?
Answer: > 100 µM (inactive)

Question: What about the GI50 (A498) of the same compound?
Answer: > 100 µM (inactive)

Question: What about the GI50 (A549) of the same compound?
Answer: > 100 µM (inactive)

Question: And the GI50 (ACHN)?
Answer: > 100 µM (inactive)

Question: What about the GI50 (CAKI-1) of the same compound?
Answer: > 100 µM (inactive)

Question: What about the GI50 (CCRF-CEM) of the same compound?
Answer: 32.9 µM (inactive)

Question: What about the GI50 (COLO 205) of the same compound?
Answer: 48.1 µM (inactive)

Question: What about the GI50 (DMS-114) of the same compound?
Answer: 43.4 µM (inactive)

Question: What about the GI50 (DMS-273) of the same compound?
Answer: 78.3 µM (inactive)

Question: And the GI50 (EKVX)?
Answer: 68.7 µM (inactive)

Question: What about the GI50 (HCC 2998) of the same compound?
Answer: > 100 µM (inactive)

Question: And the GI50 (HCT-116)?
Answer: > 100 µM (inactive)

Question: And the GI50 (HCT-15)?
Answer: > 100 µM

Question: What about the GI50 (HL-60) of the same compound?
Answer: 39.4 µM (inactive)

Question: And the GI50 (HOP-18)?
Answer: 72.1 µM (inactive)

Question: And the GI50 (HOP-62)?
Answer: > 100 µM (inactive)

Question: And the GI50 (HOP-92)?
Answer: 81.8 µM (inactive)

Question: What about the GI50 (HT-29) of the same compound?
Answer: 98.6 µM (inactive)

Question: And the GI50 (IGROV-1)?
Answer: > 100 µM (inactive)

Question: And the GI50 (K562)?
Answer: 37.7 µM (inactive)

Question: What about the GI50 (KM-20L2) of the same compound?
Answer: > 100 µM (inactive)

Question: What about the GI50 (KM12) of the same compound?
Answer: > 100 µM (inactive)

Question: And the GI50 (LOX IMVI)?
Answer: 70.8 µM (inactive)

Question: What about the GI50 (LXFL 529) of the same compound?
Answer: 79.6 µM (inactive)

Question: What about the GI50 (M14) of the same compound?
Answer: > 100 µM (inactive)

Question: What about the GI50 (M19-MEL) of the same compound?
Answer: 43.7 µM (inactive)

Question: And the GI50 (MOLT-4)?
Answer: 52.7 µM (inactive)

Question: And the GI50 (Malme-3M)?
Answer: 77.3 µM (inactive)

Question: And the GI50 (NCI-H226)?
Answer: > 100 µM (inactive)

Question: What about the GI50 (NCI-H23) of the same compound?
Answer: 89.3 µM (inactive)

Question: And the GI50 (NCI-H460)?
Answer: > 100 µM (inactive)

Question: What about the GI50 (NCI-H522) of the same compound?
Answer: 46.7 µM (inactive)

Question: What about the GI50 (OVCAR-3) of the same compound?
Answer: 58.2 µM (inactive)

Question: What about the GI50 (OVCAR-4) of the same compound?
Answer: > 100 µM (inactive)

Question: And the GI50 (OVCAR-5)?
Answer: > 100 µM (inactive)

Question: And the GI50 (OVCAR-8)?
Answer: > 100 µM (inactive)

Question: And the GI50 (RPMI-8226)?
Answer: 56.8 µM (inactive)

Question: And the GI50 (RXF 393)?
Answer: > 100 µM (inactive)

Question: And the GI50 (RXF 631)?
Answer: > 100 µM (inactive)

Question: And the GI50 (SF-268)?
Answer: > 100 µM (inactive)

Question: And the GI50 (SF-295)?
Answer: 50.5 µM (inactive)

Question: What about the GI50 (SF-539) of the same compound?
Answer: > 100 µM (inactive)

Question: And the GI50 (SK-MEL-28)?
Answer: > 100 µM (inactive)

Question: And the GI50 (SK-MEL-2)?
Answer: 94.2 µM (inactive)

Question: And the GI50 (SK-MEL-5)?
Answer: 47.5 µM (inactive)

Question: What about the GI50 (SK-OV-3) of the same compound?
Answer: > 100 µM (inactive)

Question: And the GI50 (SN12C)?
Answer: > 100 µM (inactive)

Question: What about the GI50 (SNB-19) of the same compound?
Answer: > 100 µM (inactive)

Question: And the GI50 (SNB-75)?
Answer: 75.7 µM (inactive)

Question: What about the GI50 (SNB-78) of the same compound?
Answer: > 100 µM (inactive)

Question: What about the GI50 (SR) of the same compound?
Answer: 59.7 µM (inactive)

Question: What about the GI50 (SW-620) of the same compound?
Answer: > 100 µM (inactive)

Question: And the GI50 (TK-10)?
Answer: > 100 µM (inactive)

Question: And the GI50 (U-251)?
Answer: 47.9 µM (inactive)

Question: What about the GI50 (UACC-257) of the same compound?
Answer: 65.5 µM (inactive)

Question: And the GI50 (UACC-62)?
Answer: 32.9 µM (inactive)

Question: What about the GI50 (UO-31) of the same compound?
Answer: 57 µM (inactive)

Question: `C/C=C/C=C/c1cc2cc3c(c(O)c2c(=O)[nH]1)C1(CC3)C(=O)c2c(O)c3c(c(O)c2C1=O)C(=O)C(OC)=CC3=O` (configuration not stated) was tested. Which GI50 (DLD-1) did it give?
Answer: 0.552 µM (active)

Question: What about the GI50 (DMS-114) of the same compound?
Answer: 0.337 µM (active)

Question: And the GI50 (DMS-273)?
Answer: 0.414 µM (active)

Question: What about the GI50 (HOP-18) of the same compound?
Answer: 0.615 µM (active)

Question: What about the GI50 (KM-20L2) of the same compound?
Answer: 1.08 µM (active)

Question: And the GI50 (LXFL 529)?
Answer: 0.44 µM (active)

Question: What about the GI50 (M19-MEL) of the same compound?
Answer: 0.953 µM (active)

Question: And the GI50 (RXF 631)?
Answer: 13.2 µM (inactive)

Question: And the GI50 (SNB-78)?
Answer: 4.11 µM (inactive)

Question: Which results are given for `COc1ccc(/C=C\c2cc(OC)c(O[Si](C)(C)C(C)(C)C)c(OC)c2)cc1`?
Answer: GI50 (786-0): 39.9 µM (inactive); GI50 (A498): 21 µM (inactive); GI50 (A549): 38.6 µM (inactive); GI50 (ACHN): 31.2 µM (inactive); GI50 (CAKI-1): 49.3 µM (inactive); GI50 (CCRF-CEM): 23.7 µM (inactive); GI50 (COLO 205): 68.9 µM (inactive); GI50 (DLD-1): 45.3 µM (inactive); GI50 (DMS-114): 20.3 µM (inactive); GI50 (DMS-273): 44.4 µM (inactive); GI50 (EKVX): 70 µM (inactive); GI50 (HCC 2998): 26.1 µM (inactive); GI50 (HCT-116): 33.7 µM (inactive); GI50 (HOP-62): > 100 µM (inactive); GI50 (HOP-92): 28.3 µM (inactive); GI50 (HT-29): 15 µM (inactive); GI50 (IGROV-1): > 100 µM (inactive); GI50 (K562): 39.1 µM (inactive); GI50 (KM-20L2): 45.3 µM (inactive); GI50 (KM12): 47.2 µM (inactive); GI50 (LXFL 529): 33.7 µM (inactive); GI50 (M14): 45.4 µM (inactive); GI50 (M19-MEL): 32.3 µM (inactive); GI50 (MOLT-4): 15.8 µM (inactive); GI50 (Malme-3M): 34.8 µM (inactive); GI50 (NCI-H226): 31.8 µM (inactive); GI50 (NCI-H23): 54 µM (inactive); GI50 (NCI-H460): 33 µM (inactive); GI50 (NCI-H522): 38.5 µM (inactive); GI50 (OVCAR-3): 55.5 µM (inactive); GI50 (OVCAR-4): 76.6 µM (inactive); GI50 (OVCAR-5): 20.6 µM (inactive); GI50 (OVCAR-8): 15.6 µM (inactive); GI50 (RPMI-8226): 27.4 µM (inactive); GI50 (RXF 631): 45.8 µM (inactive); GI50 (SF-268): 45.5 µM (inactive); GI50 (SF-539): 37.8 µM (inactive); GI50 (SK-MEL-28): 13.2 µM (inactive); GI50 (SK-MEL-2): 23.9 µM (inactive); GI50 (SK-MEL-5): > 10 µM (inactive); GI50 (SK-OV-3): > 100 µM (inactive); GI50 (SN12C): 39.1 µM (inactive); GI50 (SNB-19): 47.6 µM (inactive); GI50 (SNB-75): 64.9 µM (inactive); GI50 (SR): 19.7 µM (inactive); GI50 (SW-620): 33.3 µM (inactive); GI50 (U-251): 19.4 µM (inactive); GI50 (UACC-257): 21.7 µM (inactive); GI50 (UACC-62): 55 µM (inactive); GI50 (UO-31): 80.9 µM (inactive); GI50 (XF498): 22.6 µM (inactive)
